Reference: US20240199587A1, “HETEROCYCLIC COMPOUNDS” (Hoffmann-La Roche Inc., priority 2021, published 2024)

Each compound was assayed against T1, MAGL (Homo sapiens, UniProt Q99685) (assay: 2-AG assay (MAGL inhibitory activity, hydrolysis of 2-arachidonoylglycerol to arachidonic acid followed by mass spectrometry)). Details: 8 μM 2-arachidonoylglycerol, 15 min pre-incubation, 30 min incubation at RT, RapidFire MS readout.
T1 sequence (Q99685 1-303): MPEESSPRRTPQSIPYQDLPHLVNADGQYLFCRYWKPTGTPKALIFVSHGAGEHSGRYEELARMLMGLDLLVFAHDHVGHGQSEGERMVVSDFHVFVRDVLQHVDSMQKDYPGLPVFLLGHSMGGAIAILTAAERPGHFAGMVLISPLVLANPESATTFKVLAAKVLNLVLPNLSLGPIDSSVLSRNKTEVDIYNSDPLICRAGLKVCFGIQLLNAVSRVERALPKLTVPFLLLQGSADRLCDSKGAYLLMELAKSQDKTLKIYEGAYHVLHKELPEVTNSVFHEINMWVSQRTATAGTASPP
Format: biochemical
How it was run: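 Arachidonic acid released from 8 μM 2-arachidonoylglycerol was quantified by online SPE triple-quadrupole MS (negative ESI, 303.1→259.1), normalised to d8-arachidonic acid internal standard. Reaction ran 30 min at RT after 15 min RT compound pre-incubation with […] MAGL in TRIS/EDTA/Tween-20 buffer, 2.5% DMSO.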
CP(C)(=O)c1ccc(CN2CC3(C2)CN(C(=O)N2CC4(CC(n5cnc(C(F)(F)F)n5)C4)C2)C3)cc1 [Example 379, [6-[(4-dimethyl-phosphorylphenyl)methyl]-2,6-diazaspiro[3.3]heptan-2-yl]-[6-[3-(trifluoromethyl)-1,2,4-triazol-1-yl]-2-azaspiro[3.3]heptan-2-yl]methanone] was tested, and the IC50 was 3350 nM. In the case of O=C(N1CC2(CC(Cc3ccc(F)cc3F)C2)C1)N1CC2(CC(c3cncc(F)c3)C2)C1 [Example 380, [6-[(2,4-difluorophenyl)methyl]-2-azaspiro[3.3]heptan-2-yl]-[6-(5-fluoro-3-pyridyl)-2-azaspiro[3.3]heptan-2-yl]methanone], the IC50 is reported as 0.57 nM. With O=C(N1CC2(CC(Cc3ccc(OC(F)(F)F)nc3)C2)C1)N1CC2(CC(n3cnc(C4(O)CC4)n3)C2)C1 [Example 381] the IC50 was 0.44 nM. O=C(N1CC(C23CC(Cc4ccc(C(F)(F)F)nc4)(C2)C3)C1)N1CC2(CC(n3cnc(C4(O)CC4)n3)C2)C1 [Example 382, [6-[3-(1-hydroxycyclopropyl)-1,2,4-triazol-1-yl]-2-azaspiro[3.3]heptan-2-yl]-[3-[3-[[6-(trifluoromethyl)-3-pyridyl]methyl]-1-bicyclo[1.1.1]pentanyl]azetidin-1-yl]methanone] showed an IC50 of 52.4 nM. O=C(N1CC2(CC(Cc3ccc4[nH]ncc4n3)C2)C1)N1CC2(CC(n3cnc(C4(O)CC4)n3)C2)C1 [Example 383, [6-[3-(1-hydroxycyclopropyl)-1,2,4-triazol-1-yl]-2-azaspiro[3.3]heptan-2-yl]-[6-(1H-pyrazolo[4,3-b]pyridin-5-ylmethyl)-2-azaspiro[3.3]heptan-2-yl]methanone] gave an IC50 of 39.8 nM. With O=C(N1CC(C23CC(Cc4nnc(C5CC5)[nH]4)(C2)C3)C1)N1CC2(CC(n3cnc(C4CC4)n3)C2)C1 [Example 384, [6-(3-cyclopropyl-1,2,4-triazol-1-yl)-2-azaspiro[3.3]heptan-2-yl]-[3-[3-[(5-cyclopropyl-4H-1,2,4-triazol-3-yl)methyl]-1-bicyclo[1.1.1]pentanyl]azetidin-1-yl]methanone] the IC50 was 4.88 nM. CS(=O)(=O)c1ccc(CC2CC3(C2)CN(C(=O)N2CC4(CC(n5cnc(C6(O)CC6)n5)C4)C2)C3)cc1C(F)(F)F [Example 385, [6-[3-(1-hydroxycyclopropyl)-1,2,4-triazol-1-yl]-2-azaspiro[3.3]heptan-2-yl]-[6-[[4-methylsulfonyl-3-(trifluoromethyl)phenyl]methyl]-2-azaspiro[3.3]heptan-2-yl]methanone] gave an IC50 of 1.25 nM. Compound CS(=O)(=O)c1cc(Cl)ccc1-c1ccc(C2CN(C(=O)N3CC4(CC(c5ccc(C(F)(F)F)nc5)C4)C3)C2)cn1 [Example 386, [3-[6-(4-chloro-2-methylsulfonyl-phenyl)-3-pyridyl]azetidin-1-yl]-[6-[6-(trifluoromethyl)-3-pyridyl]-2-azaspiro[3.3]heptan-2-yl]methanone] has an IC50 of 142 nM. N#Cc1cc(C(F)(F)F)ncc1O[C@H]1CCC2(C1)CN(C(=O)N1CC3(CC(n4cnc(C5(O)CC5)n4)C3)C1)C2 [Example 387, 5-[[(6S)-2-[6-[3-(1-hydroxycyclopropyl)-1,2,4-triazol-1-yl]-2-azaspiro[3.3]heptane-2-carbonyl]-2-azaspiro[3.4]octan-6-yl]oxy]-2-(trifluoromethyl)pyridine-4-carbonitrile] gave an IC50 of 196 nM. For O=C(N1CC2(CCC(Cc3ncc(F)cc3F)C2)C1)N1CC2(CC(n3cnc(C4(O)CC4)n3)C2)C1 (stereo not shown) [Example 388, [6-[(3,5-difluoro-2-pyridyl)methyl]-2-azaspiro[3.4]octan-2-yl]-[6-[3-(1-hydroxycyclopropyl)-1,2,4-triazol-1-yl]-2-azaspiro[3.3]heptan-2-yl]methanone], the IC50 was 8.72 nM. Compound O=C(N1CC2(CCC(Cc3ccc(C(F)(F)F)cn3)C2)C1)N1CC2(CC(n3cnc(C4(O)CC4)n3)C2)C1 (stereo not shown) [Example 389, [6-[3-(1-hydroxycyclopropyl)-1,2,4-triazol-1-yl]-2-azaspiro[3.3]heptan-2-yl]-[6-[[5-(trifluoromethyl)-2-pyridyl]methyl]-2-azaspiro[3.4]octan-2-yl]methanone] has an IC50 of 8.68 nM. O=C(N1CC2(CC(Cc3ccc(F)cn3)C2)C1)N1CC2(CC(n3cnc(C4(O)CC4)n3)C2)C1 [Example 390, [6-[(5-fluoro-2-pyridyl)methyl]-2-azaspiro[3.3]heptan-2-yl]-[6-[3-(1-hydroxycyclopropyl)-1,2,4-triazol-1-yl]-2-azaspiro[3.3]heptan-2-yl]methanone] showed an IC50 of 30.1 nM. O=C(N1CC2(CCN(Cc3ccc(C(F)(F)F)cn3)CC2)C1)N1CC2(CC(n3cnc(C4(O)CC4)n3)C2)C1 [Example 391, [6-[3-(1-hydroxycyclopropyl)-1,2,4-triazol-1-yl]-2-azaspiro[3.3]heptan-2-yl]-[7-[[5-(trifluoromethyl)-2-pyridyl]methyl]-2,7-diazaspiro[3.5]nonan-2-yl]methanone] gave an IC50 of 14.1 nM. O=C(N1CC2(CCN(Cc3ccc(C(F)(F)F)nc3)CC2)C1)N1CC2(CC(n3cnc(C4(O)CC4)n3)C2)C1 [Example 392, [6-[3-(1-hydroxycyclopropyl)-1,2,4-triazol-1-yl]-2-azaspiro[3.3]heptan-2-yl]-[7-[[6-(trifluoromethyl)-3-pyridyl]methyl]-2,7-diazaspiro[3.5]nonan-2-yl]methanone] showed an IC50 of 197 nM. With COc1cc(C(F)(F)F)ccc1CNC1CN(C(=O)N2CC3(CC(n4cnc(C5(O)CC5)n4)C3)C2)C1 [Example 393, [6-[3-(1-hydroxycyclopropyl)-1,2,4-triazol-1-yl]-2-azaspiro[3.3]heptan-2-yl]-[3-[[2-methoxy-4-(trifluoromethyl)phenyl]methylamino]azetidin-1-yl]methanone] the IC50 was 401 nM. For CC1(Cc2nnc(-c3ccc(C4CN(C(=O)N5CC6(CC(n7cnc(C8(O)CC8)n7)C6)C5)C4)cc3)[nH]2)CC1 [Example 394, [6-[3-(1-hydroxycyclopropyl)-1,2,4-triazol-1-yl]-2-azaspiro[3.3]heptan-2-yl]-[3-[4-[5-[(1-methylcyclopropyl)methyl]-4H-1,2,4-triazol-3-yl]phenyl]azetidin-1-yl]methanone], the IC50 was 43.7 nM. In the case of O=C(N1CC(C23CC(NCC4(C(F)(F)F)CC4)(C2)C3)C1)N1CC2(CC(n3cnc(C4(O)CC4)n3)C2)C1 [Example 395, [6-[3-(1-hydroxycyclopropyl)-1,2,4-triazol-1-yl]-2-azaspiro[3.3]heptan-2-yl]-[3-[3-[[1-(trifluoromethyl)cyclopropyl]methylamino]-1-bicyclo[1.1.1]pentanyl]azetidin-1-yl]methanone], the IC50 is reported as 14.7 nM. In the case of CS(=O)(=O)c1cc(Cl)ccc1-c1ccc(C2CN(C(=O)N3CC4(CC(n5cnc(C6(O)CC6)n5)C4)C3)C2)cc1 [Example 396, [3-[4-(4-chloro-2-methylsulfonyl-phenyl)phenyl]azetidin-1-yl]-[6-[3-(1-hydroxycyclopropyl)-1,2,4-triazol-1-yl]-2-azaspiro[3.3]heptan-2-yl]methanone], the IC50 is reported as 0.26 nM. Work on O=C(N1CC(c2ccc(N3CC[C@H](C(F)(F)F)C3)nc2)C1)N1CC2(CC(n3cnc(C4(O)CC4)n3)C2)C1 [Example 397, [6-[3-(1-hydroxycyclopropyl)-1,2,4-triazol-1-yl]-2-azaspiro[3.3]heptan-2-yl]-[3-[6-[(3S)-3-(trifluoromethyl)pyrrolidin-1-yl]-3-pyridyl]azetidin-1-yl]methanone] yielded an IC50 of 14.4 nM.
